Test results: US9611249B2, “1H-indazole-3-carboxamide compounds as glycogen synthase kinase 3 beta inhibitors” (AZIENDE CHIMICHE RIUNITE ANGELINI FRANCESCO A.C.R.A.F. …, priority 2012, dated 2017)

Legend:
IGF1R kinase (h) = IGF1R kinase (h) (Homo sapiens (Human), UniProt P08069); experiment: Kinase selectivity panel: IGF1R kinase (h); assay type: biochemical; settings: 10 μM in duplicate, read-out: % inhibition of control values
Description: (§1) (a) Compounds 1 and 2 were tested against a panel of 60 kinases in order to assess their selectivity. The assays were chosen taking into consideration the diversity of assay families.
(§2) Tested kinases were representative of following kinase sub-families: • protein-serine/threonine kinases; • protein-tyrosine kinases; • other kinases; and • atypical kinases.
(§3) Human recombinant kinases were incubated in the presence of specific peptide substrates plus ATP for different times (10, 15, 30, 60 or 90 minutes) at 22° C. Phosphorylated substrate was detected by LANCE or HTRF technology (CISBIO, MA, USA). The compounds were tested at 10 μM in duplicate.
(§4) The results are expressed as a percentage of inhibition of control specific activity obtained in the presence of the test compounds and are reported in the following Table 5.
(§5) (b) Compounds 3, 8, 29 and 31 were tested against the same panel of 60 kinases under the same conditions described above for compounds 1 and 2.
(§6) The results are expressed as a percent of inhibition of control specific activity obtained in the presence of the test compounds and are reported in the following Table 6.

mTOR kinase (h) (FRAP1) = mTOR kinase (h) (FRAP1) (Homo sapiens (Human), UniProt P42345); experiment: Kinase selectivity panel: mTOR kinase (h) (FRAP1); assay type: biochemical; settings: 10 μM in duplicate, read-out: % inhibition of control values
Description: as §1, §2, §3, §4, §5, §6

TAOK2 (TAO1) (h) = TAOK2 (TAO1) (h) (Homo sapiens (Human), UniProt Q9UL54); experiment: Kinase selectivity panel: TAOK2 (TAO1) (h); assay type: biochemical; settings: 10 μM in duplicate, read-out: % inhibition of control values
Description: as §1, §2, §3, §4, §5, §6

PKCgamma (h) = PKCgamma (h) (Homo sapiens (Human), UniProt P05129); experiment: Kinase selectivity panel: PKCgamma (h); assay type: biochemical; settings: 10 μM in duplicate, read-out: % inhibition of control values
Description: as §1, §2, §3, §4, §5, §6

Ret kinase (h) = Ret kinase (h) (Homo sapiens (Human), UniProt P07949); experiment: Kinase selectivity panel: Ret kinase (h); assay type: biochemical; settings: 10 μM in duplicate, read-out: % inhibition of control values
Description: as §1, §2, §3, §4, §5, §6

Pim2 kinase (h) = Pim2 kinase (h) (Homo sapiens (Human), UniProt Q9P1W9); experiment: Kinase selectivity panel: Pim2 kinase (h); assay type: biochemical; settings: 10 μM in duplicate, read-out: % inhibition of control values
Chain of Pim2 kinase (h) (Q9P1W9 whole entry): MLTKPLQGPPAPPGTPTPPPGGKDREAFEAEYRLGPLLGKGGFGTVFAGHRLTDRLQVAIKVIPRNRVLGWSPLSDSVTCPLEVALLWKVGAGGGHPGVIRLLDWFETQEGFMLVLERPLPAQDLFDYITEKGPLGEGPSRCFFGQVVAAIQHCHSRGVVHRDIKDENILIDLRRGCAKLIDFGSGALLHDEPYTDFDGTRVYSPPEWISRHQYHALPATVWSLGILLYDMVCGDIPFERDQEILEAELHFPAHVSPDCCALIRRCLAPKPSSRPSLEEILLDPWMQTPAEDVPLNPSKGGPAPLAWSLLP
Description: as §1, §2, §3, §4, §5, §6

TRKA (h) = TRKA (h) (Homo sapiens (Human), UniProt P04629); experiment: Kinase selectivity panel: TRKA (h); assay type: biochemical; settings: 10 μM in duplicate, read-out: % inhibition of control values
Chain of TRKA (h) (P04629 33-796): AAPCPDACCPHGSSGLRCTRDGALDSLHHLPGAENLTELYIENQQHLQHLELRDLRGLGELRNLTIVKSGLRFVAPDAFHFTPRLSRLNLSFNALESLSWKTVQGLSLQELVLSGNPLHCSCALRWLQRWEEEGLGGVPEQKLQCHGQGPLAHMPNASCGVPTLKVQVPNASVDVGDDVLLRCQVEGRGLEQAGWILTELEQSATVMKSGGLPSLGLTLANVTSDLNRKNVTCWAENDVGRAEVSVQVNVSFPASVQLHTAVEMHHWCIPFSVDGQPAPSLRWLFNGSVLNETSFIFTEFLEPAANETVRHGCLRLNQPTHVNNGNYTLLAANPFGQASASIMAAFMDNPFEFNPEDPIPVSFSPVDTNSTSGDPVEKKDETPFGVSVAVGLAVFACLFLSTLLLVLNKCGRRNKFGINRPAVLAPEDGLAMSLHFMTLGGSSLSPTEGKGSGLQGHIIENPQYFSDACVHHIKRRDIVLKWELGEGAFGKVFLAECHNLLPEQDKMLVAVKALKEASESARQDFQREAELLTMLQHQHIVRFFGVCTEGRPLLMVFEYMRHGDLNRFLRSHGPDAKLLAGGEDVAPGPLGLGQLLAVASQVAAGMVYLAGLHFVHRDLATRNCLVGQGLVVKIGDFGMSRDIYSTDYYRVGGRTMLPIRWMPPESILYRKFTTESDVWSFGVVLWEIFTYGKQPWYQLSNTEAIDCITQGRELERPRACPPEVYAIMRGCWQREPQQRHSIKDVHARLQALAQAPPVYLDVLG
Description: as §1, §2, §3, §4, §5, §6

HGK (h) (MAP4K4) = HGK (h) (MAP4K4) (Homo sapiens (Human), UniProt O95819); experiment: Kinase selectivity panel: HGK (h) (MAP4K4); assay type: biochemical; settings: 10 μM in duplicate, read-out: % inhibition of control values
Description: as §1, §2, §3, §4, §5, §6

DAPK1 (h) = DAPK1 (h) (Homo sapiens (Human), UniProt P53355); experiment: Kinase selectivity panel: DAPK1 (h); assay type: biochemical; settings: 10 μM in duplicate, read-out: % inhibition of control values
Description: as §1, §2, §3, §4, §5, §6

smMLCK (h) (MYLK) = smMLCK (h) (MYLK) (Homo sapiens (Human), UniProt Q15746); experiment: Kinase selectivity panel: smMLCK (h) (MYLK); assay type: biochemical; settings: 10 μM in duplicate, read-out: % inhibition of control values
Chain of smMLCK (h) (MYLK) (Q15746 whole entry): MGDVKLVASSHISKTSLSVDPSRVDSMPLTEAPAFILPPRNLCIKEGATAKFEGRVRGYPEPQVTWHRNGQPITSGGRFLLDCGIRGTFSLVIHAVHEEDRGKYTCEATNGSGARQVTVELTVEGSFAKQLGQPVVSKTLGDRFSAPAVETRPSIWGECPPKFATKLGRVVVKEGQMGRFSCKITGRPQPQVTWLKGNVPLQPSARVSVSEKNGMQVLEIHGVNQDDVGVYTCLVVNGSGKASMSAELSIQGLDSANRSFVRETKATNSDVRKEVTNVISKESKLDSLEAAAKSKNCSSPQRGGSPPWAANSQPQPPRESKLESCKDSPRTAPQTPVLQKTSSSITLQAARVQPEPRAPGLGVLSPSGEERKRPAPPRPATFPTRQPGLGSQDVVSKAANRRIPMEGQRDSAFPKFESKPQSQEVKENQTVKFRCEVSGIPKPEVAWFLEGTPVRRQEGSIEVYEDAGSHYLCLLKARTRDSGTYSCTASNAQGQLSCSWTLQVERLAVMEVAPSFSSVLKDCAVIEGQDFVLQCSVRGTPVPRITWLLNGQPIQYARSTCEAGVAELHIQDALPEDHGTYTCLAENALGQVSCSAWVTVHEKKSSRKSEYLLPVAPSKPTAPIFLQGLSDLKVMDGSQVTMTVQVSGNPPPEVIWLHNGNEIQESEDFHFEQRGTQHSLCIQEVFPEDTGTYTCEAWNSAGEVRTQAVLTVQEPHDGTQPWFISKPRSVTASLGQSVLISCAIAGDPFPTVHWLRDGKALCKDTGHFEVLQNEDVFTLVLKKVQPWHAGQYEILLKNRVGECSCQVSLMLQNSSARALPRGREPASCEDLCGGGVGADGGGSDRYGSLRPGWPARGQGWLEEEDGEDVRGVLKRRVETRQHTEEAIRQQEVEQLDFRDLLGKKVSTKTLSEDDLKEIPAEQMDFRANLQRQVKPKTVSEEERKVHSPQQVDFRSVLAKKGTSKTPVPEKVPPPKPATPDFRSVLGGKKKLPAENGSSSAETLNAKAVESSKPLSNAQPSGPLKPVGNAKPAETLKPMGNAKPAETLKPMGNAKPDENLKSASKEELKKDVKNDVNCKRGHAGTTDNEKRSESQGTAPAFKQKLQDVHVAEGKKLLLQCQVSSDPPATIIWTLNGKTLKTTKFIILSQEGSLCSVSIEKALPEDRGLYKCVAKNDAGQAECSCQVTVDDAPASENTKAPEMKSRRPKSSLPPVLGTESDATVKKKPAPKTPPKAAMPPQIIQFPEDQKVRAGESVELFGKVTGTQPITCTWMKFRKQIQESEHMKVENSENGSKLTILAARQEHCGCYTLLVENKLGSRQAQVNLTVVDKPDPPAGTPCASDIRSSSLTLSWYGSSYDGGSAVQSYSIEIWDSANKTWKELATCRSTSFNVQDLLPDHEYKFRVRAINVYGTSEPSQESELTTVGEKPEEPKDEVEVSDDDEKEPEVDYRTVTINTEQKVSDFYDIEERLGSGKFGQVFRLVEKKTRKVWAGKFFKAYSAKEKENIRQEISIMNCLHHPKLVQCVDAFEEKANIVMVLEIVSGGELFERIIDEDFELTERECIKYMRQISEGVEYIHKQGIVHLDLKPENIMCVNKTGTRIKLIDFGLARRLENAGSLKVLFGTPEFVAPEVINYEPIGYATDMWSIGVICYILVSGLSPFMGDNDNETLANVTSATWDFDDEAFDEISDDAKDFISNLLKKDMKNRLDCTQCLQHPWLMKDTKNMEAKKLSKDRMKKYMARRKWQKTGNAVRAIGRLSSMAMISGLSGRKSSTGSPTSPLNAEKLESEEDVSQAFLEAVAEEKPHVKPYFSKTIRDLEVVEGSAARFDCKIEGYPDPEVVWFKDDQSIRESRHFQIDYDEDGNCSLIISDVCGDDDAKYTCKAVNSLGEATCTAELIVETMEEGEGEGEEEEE
Description: as §1, §2, §3, §4, §5, §6

MEK1/MAP2K1 (h) = MEK1/MAP2K1 (h) (Homo sapiens (Human), UniProt Q02750); experiment: Kinase selectivity panel: MEK1/MAP2K1 (h); assay type: biochemical; settings: 10 μM in duplicate, read-out: % inhibition of control values
Description: as §1, §2, §3, §4, §5, §6

MAPKAPK2 (h) = MAPKAPK2 (h) (Homo sapiens (Human), UniProt P49137); experiment: Kinase selectivity panel: MAPKAPK2 (h); assay type: biochemical; settings: 10 μM in duplicate, read-out: % inhibition of control values
Description: as §1, §2, §3, §4, §5, §6

p38gamma kinase (h) = p38gamma kinase (h) (Homo sapiens (Human), UniProt P53778); experiment: Kinase selectivity panel: p38gamma kinase (h); assay type: biochemical; settings: 10 μM in duplicate, read-out: % inhibition of control values
Description: as §1, §2, §3, §4, §5, §6

ERK2 (h) (P42mapk) = ERK2 (h) (P42mapk) (Homo sapiens (Human), UniProt P28482); experiment: Kinase selectivity panel: ERK2 (h) (P42mapk); assay type: biochemical; settings: 10 μM in duplicate, read-out: % inhibition of control values
Description: as §1, §2, §3, §4, §5, §6

IKKepsilon (h) (IKBKE) = IKKepsilon (h) (IKBKE) (Homo sapiens (Human), UniProt Q14164); experiment: Kinase selectivity panel: IKKepsilon (h) (IKBKE); assay type: biochemical; settings: 10 μM in duplicate, read-out: % inhibition of control values
Description: as §1, §2, §3, §4, §5, §6

CK1alpha (h) = CK1alpha (h) (Homo sapiens (Human), UniProt P48729); experiment: Kinase selectivity panel: CK1alpha (h); assay type: biochemical; settings: 10 μM in duplicate, read-out: % inhibition of control values
Description: as §1, §2, §3, §4, §5, §6

Fyn kinase (h) = Fyn kinase (h) (Homo sapiens (Human), UniProt P06241); experiment: Kinase selectivity panel: Fyn kinase (h); assay type: biochemical; settings: 10 μM in duplicate, read-out: % inhibition of control values
Description: as §1, §2, §3, §4, §5, §6

FGFR4 kinase (h) = FGFR4 kinase (h) (Homo sapiens (Human), UniProt P22455); experiment: Kinase selectivity panel: FGFR4 kinase (h); assay type: biochemical; settings: 10 μM in duplicate, read-out: % inhibition of control values
Description: as §1, §2, §3, §4, §5, §6

PAK1 (h) = PAK1 (h) (Homo sapiens (Human), UniProt Q13153); experiment: Kinase selectivity panel: PAK1 (h); assay type: biochemical; settings: 10 μM in duplicate, read-out: % inhibition of control values
Description: as §1, §2, §3, §4, §5, §6

p38alpha kinase (h) = p38alpha kinase (h) (Homo sapiens (Human), UniProt Q16539); experiment: Kinase selectivity panel: p38alpha kinase (h); assay type: biochemical; settings: 10 μM in duplicate, read-out: % inhibition of control values
Description: as §1, §2, §3, §4, §5, §6

AMPKalpha = experiment: Kinase selectivity panel: AMPKalpha; assay type: biochemical, human; settings: 10 μM in duplicate
Description: as §1, §2, §3, §4, §5, §6

CaMK4 (h) = CaMK4 (h) (Homo sapiens (Human), UniProt Q16566); experiment: Kinase selectivity panel: CaMK4 (h); assay type: biochemical; settings: 10 μM in duplicate, read-out: % inhibition of control values
Description: as §1, §2, §3, §4, §5, §6

PCTAIRE1 kinase (h) = PCTAIRE1 kinase (h) (Homo sapiens (Human), UniProt Q00536); experiment: Kinase selectivity panel: PCTAIRE1 kinase (h); assay type: biochemical; settings: 10 μM in duplicate, read-out: % inhibition of control values
Description: as §1, §2, §3, §4, §5, §6

AurA/Aur2 kinase (h) = AurA/Aur2 kinase (h) (Homo sapiens (Human), UniProt O14965); experiment: Kinase selectivity panel: AurA/Aur2 kinase (h); assay type: biochemical; settings: 10 μM in duplicate, read-out: % inhibition of control values
Description: as §1, §2, §3, §4, §5, §6

MNK2 (h) = MNK2 (h) (Homo sapiens (Human), UniProt Q9HBH9); experiment: Kinase selectivity panel: MNK2 (h); assay type: biochemical; settings: 10 μM in duplicate, read-out: % inhibition of control values
Description: as §1, §2, §3, §4, §5, §6

EphB2 kinase (h) = EphB2 kinase (h) (Homo sapiens (Human), UniProt P29323); experiment: Kinase selectivity panel: EphB2 kinase (h); assay type: biochemical; settings: 10 μM in duplicate, read-out: % inhibition of control values
Description: as §1, §2, §3, §4, §5, §6

NEK1 (h) = NEK1 (h) (Homo sapiens (Human), UniProt Q96PY6); experiment: Kinase selectivity panel: NEK1 (h); assay type: biochemical; settings: 10 μM in duplicate, read-out: % inhibition of control values
Description: as §1, §2, §3, §4, §5, §6

CDC2/CDK1 (h) (cycB) = CDC2/CDK1 (h) (cycB) (Homo sapiens (Human), UniProt P06493); experiment: Kinase selectivity panel: CDC2/CDK1 (h) (cycB); assay type: biochemical; settings: 10 μM in duplicate, read-out: % inhibition of control values
Description: as §1, §2, §3, §4, §5, §6

GSK3beta (h) = GSK3beta (h) (Homo sapiens (Human), UniProt P49841); experiment: Kinase selectivity panel: GSK3beta (h); assay type: biochemical; settings: GSK3beta (h); 10 μM in duplicate; read-out: % inhibition of control values
Chain of GSK3beta (h) (P49841 whole entry): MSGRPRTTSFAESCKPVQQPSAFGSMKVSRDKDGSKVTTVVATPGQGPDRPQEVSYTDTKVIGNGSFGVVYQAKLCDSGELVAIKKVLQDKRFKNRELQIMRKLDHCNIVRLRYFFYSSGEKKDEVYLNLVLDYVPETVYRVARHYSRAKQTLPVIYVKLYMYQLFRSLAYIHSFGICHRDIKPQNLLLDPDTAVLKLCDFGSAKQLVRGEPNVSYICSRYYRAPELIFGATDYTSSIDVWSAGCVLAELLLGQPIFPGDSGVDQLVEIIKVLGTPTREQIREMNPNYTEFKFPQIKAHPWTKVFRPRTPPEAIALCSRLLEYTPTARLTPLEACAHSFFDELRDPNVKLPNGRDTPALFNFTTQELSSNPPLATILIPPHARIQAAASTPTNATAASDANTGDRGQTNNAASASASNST
Description: as §1, §2, §3, §4, §6

MSK1 (h) = MSK1 (h) (Homo sapiens (Human), UniProt O75582); experiment: Kinase selectivity panel: MSK1 (h); assay type: biochemical; settings: 10 μM in duplicate, read-out: % inhibition of control values
Description: as §1, §2, §3, §4, §5, §6

JAK2 (h) = JAK2 (h) (Homo sapiens (Human), UniProt O60674); experiment: Kinase selectivity panel: JAK2 (h); assay type: biochemical; settings: 10 μM in duplicate, read-out: % inhibition of control values
Chain of JAK2 (h) (O60674 whole entry): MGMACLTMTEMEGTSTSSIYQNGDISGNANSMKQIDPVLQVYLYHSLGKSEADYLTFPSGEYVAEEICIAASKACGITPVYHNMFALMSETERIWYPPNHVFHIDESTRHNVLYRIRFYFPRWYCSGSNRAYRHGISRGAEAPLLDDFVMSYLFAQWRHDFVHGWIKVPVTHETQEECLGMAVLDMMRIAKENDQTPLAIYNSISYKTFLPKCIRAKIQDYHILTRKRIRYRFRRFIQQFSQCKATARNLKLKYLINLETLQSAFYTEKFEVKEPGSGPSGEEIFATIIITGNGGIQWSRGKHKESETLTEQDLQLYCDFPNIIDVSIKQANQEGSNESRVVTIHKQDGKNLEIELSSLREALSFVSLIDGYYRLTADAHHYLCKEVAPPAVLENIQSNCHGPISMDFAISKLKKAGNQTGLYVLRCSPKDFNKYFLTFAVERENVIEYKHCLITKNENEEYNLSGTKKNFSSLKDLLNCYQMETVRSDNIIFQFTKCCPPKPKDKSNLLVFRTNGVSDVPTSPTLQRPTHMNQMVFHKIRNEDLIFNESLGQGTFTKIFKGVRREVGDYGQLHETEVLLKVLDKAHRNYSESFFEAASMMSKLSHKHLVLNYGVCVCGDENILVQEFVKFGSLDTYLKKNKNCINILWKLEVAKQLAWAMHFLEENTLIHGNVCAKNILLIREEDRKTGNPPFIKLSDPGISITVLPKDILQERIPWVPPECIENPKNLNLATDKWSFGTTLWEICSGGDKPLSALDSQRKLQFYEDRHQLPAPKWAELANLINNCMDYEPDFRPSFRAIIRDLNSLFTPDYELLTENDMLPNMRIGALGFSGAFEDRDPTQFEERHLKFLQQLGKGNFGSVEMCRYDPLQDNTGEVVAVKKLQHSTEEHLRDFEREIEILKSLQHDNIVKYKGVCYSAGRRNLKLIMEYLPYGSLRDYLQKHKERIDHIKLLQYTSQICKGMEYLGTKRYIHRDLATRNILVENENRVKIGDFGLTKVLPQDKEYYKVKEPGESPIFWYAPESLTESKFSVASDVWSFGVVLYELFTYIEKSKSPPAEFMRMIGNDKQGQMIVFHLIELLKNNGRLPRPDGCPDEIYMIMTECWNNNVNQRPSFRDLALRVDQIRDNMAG
Description: as §1, §2, §3, §4, §5, §6

ERK1 (h) = ERK1 (h) (Homo sapiens (Human), UniProt P27361); experiment: Kinase selectivity panel: ERK1 (h); assay type: biochemical; settings: 10 μM in duplicate, read-out: % inhibition of control values
Chain of ERK1 (h) (P27361 whole entry): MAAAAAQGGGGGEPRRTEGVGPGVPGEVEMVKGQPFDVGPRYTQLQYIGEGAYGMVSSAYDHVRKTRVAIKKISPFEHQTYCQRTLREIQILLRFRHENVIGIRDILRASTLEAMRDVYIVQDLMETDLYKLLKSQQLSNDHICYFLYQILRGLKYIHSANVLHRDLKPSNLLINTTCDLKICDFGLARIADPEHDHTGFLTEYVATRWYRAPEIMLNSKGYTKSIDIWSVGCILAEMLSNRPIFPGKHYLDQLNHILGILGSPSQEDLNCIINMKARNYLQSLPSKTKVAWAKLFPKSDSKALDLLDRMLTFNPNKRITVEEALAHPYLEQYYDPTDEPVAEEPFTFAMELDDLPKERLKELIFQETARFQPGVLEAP
Description: as §1, §2, §3, §4, §5, §6

IRAK4 (h) = IRAK4 (h) (Homo sapiens (Human), UniProt Q9NWZ3); experiment: Kinase selectivity panel: IRAK4 (h); assay type: biochemical; settings: 10 μM in duplicate, read-out: % inhibition of control values
Description: as §1, §2, §3, §4, §5, §6

Row | Compound | inhibition at 10 µM (IGF1R kinase (h)) [%] | inhibition at 10 µM (mTOR kinase (h) (FRAP1)) [%] | inhibition at 10 µM (TAOK2 (TAO1) (h)) [%] | inhibition at 10 µM (PKCgamma (h)) [%] | inhibition at 10 µM (Ret kinase (h)) [%] | inhibition at 10 µM (Pim2 kinase (h)) [%] | inhibition at 10 µM (TRKA (h)) [%] | inhibition at 10 µM (HGK (h) (MAP4K4)) [%] | inhibition at 10 µM (DAPK1 (h)) [%] | inhibition at 10 µM (smMLCK (h) (MYLK)) [%] | inhibition at 10 µM (MEK1/MAP2K1 (h)) [%] | inhibition at 10 µM (MAPKAPK2 (h)) [%] | inhibition at 10 µM (p38gamma kinase (h)) [%] | inhibition at 10 µM (ERK2 (h) (P42mapk)) [%] | inhibition at 10 µM (IKKepsilon (h) (IKBKE)) [%] | inhibition at 10 µM (CK1alpha (h)) [%] | inhibition at 10 µM (Fyn kinase (h)) [%] | inhibition at 10 µM (FGFR4 kinase (h)) [%] | inhibition at 10 µM (PAK1 (h)) [%] | inhibition at 10 µM (p38alpha kinase (h)) [%] | also measured
1 | COc1ccc2[nH]nc(C(=O)NCC3CCN(CC(=O)O)CC3)c2c1 [Compound 1, [4-({[(5-methoxy-1H-indazol-3-yl)-carbonyl]amino}methyl)piperidin-1-yl]acetic acid] | 0 | 2 | 3 | 3 | 0 | 3 | 1 | 8 | 22 | 0 | 24 | 0 | 0 | 58 | 0 | 0 | 0 | 0 | 1 | 0 | % inhibition of control values (AMPKalpha): 16%; inhibition at 10 µM (CaMK4 (h)): 0%; inhibition at 10 µM (PCTAIRE1 kinase (h)): 22%; inhibition at 10 µM (AurA/Aur2 kinase (h)): 7%; inhibition at 10 µM (MNK2 (h)): 0%; inhibition at 10 µM (EphB2 kinase (h)): 4%; inhibition at 10 µM (NEK1 (h)): 0%; inhibition at 10 µM (CDC2/CDK1 (h) (cycB)): 7%; inhibition at 10 µM (GSK3beta (h)): 94%; inhibition at 10 µM (MSK1 (h)): 7%; inhibition at 10 µM (JAK2 (h)): 0%; inhibition at 10 µM (ERK1 (h)): 20%; inhibition at 10 µM (IRAK4 (h)): 0%
2 | COCCN1CCC(CNC(=O)c2n[nH]c3ccc(OC)cc23)CC1 [Compound 2, 5-methoxy-N-{[1-(2-methoxyethyl)-piperidin-4-yl]methyl}-1H-indazole-3-carboxamide] | 0 | 2 | 26 | 0 | 0 | 4 | 0 | 23 | 12 | 8 | 9 | 0 | 0 | 46 | 0 | 12 | 3 | 0 | 0 | 0 | % inhibition of control values (AMPKalpha): 19%; inhibition at 10 µM (CaMK4 (h)): 0%; inhibition at 10 µM (PCTAIRE1 kinase (h)): 71%; inhibition at 10 µM (AurA/Aur2 kinase (h)): 1%; inhibition at 10 µM (MNK2 (h)): 0%; inhibition at 10 µM (EphB2 kinase (h)): 7%; inhibition at 10 µM (NEK1 (h)): 0%; inhibition at 10 µM (CDC2/CDK1 (h) (cycB)): 0%; inhibition at 10 µM (GSK3beta (h)): 90%; inhibition at 10 µM (MSK1 (h)): 16%; inhibition at 10 µM (JAK2 (h)): 0%; inhibition at 10 µM (ERK1 (h)): 15%; inhibition at 10 µM (IRAK4 (h)): 8%
